Reference: patent US4902811A, “Benzodioxane prostacyclin analogs” (Shionogi & Co., Ltd., priority 1987, dated 1990)
Where two headings read alike, the source gives them in different places.

Tested on: hydrochloric acid-ethanol-induced gastric ulcer
Test: Effect against hydrochloric acid ethanol-induced gastric ulcer (percent suppression of lesion index, oral)
Type: in vivo, male JCL-SD rats or CRJ-SD rats
Settings: for inhibition in vivo at 0.03 mg/kg / inhibition in vivo at 0.1 mg/kg: Rattus norvegicus, po, 1 h, read-out: Percent Suppression (P.S.); for inhibition in vivo at 0.1 mg/kg: 100 μg/kg
Procedure: To male JCL-SD rats or CRJ-SD rats (weight: 220 g to 260 g) which have been fasted for 24 hours is administered orally 1 ml of 150 mM hydrochloric acid-60% ethanol. After an hour, the stomachs are excised. The ulcer size is determined by measuring the length of each lesion using a stereoscopic microscope and the sum of individual lesion length is expressed as lesion index. The vehicle (1% to 10% ethanol) and the test compounds are administered orally 30 minutes before the hydrochloric acid-ethanol administration. The percent suppression is calculated from the lesion indexes of treated versus non-treated animals.

[1] = JCL-SD rats, oral, 30 μg/kg, 30 min before HCl-ethanol
[2] = JCL-SD rats, oral, 30 min before HCl-ethanol

SMILES | inhibition in vivo at 0.03 mg/kg [1] [%] | other results
CCCCC[C@@H](O)/C=C/[C@H]1[C@@H]2Oc3cccc(OCC(=O)OC)c3O[C@@H]2C[C@@H]1O (relative stereo) [Iba-a] | 36 | 
CCCCC[C@@H](O)/C=C/[C@H]1[C@@H]2Oc3cccc(OCC(=O)O)c3O[C@@H]2C[C@@H]1O (relative stereo) [Iba-b, [(1R*,2S*,3aR*,9aS*)-2-hydroxy-1-[(3R*,1E)-3-hydroxy-1-octenyl]-2,3,3a,9a-tetrahydro-1H-cyclopenta[b][1,4]benzodioxin-5-yl]oxyacetic acid] |  | inhibition in vivo at 0.1 mg/kg [2]: 30%
COC(=O)COc1cccc2c1O[C@@H]1C[C@H](O)[C@@H](/C=C/[C@H](O)C3CCCCC3)[C@@H]1O2 (relative stereo) [Ibb-a] | 63 | 
O=C(O)COc1cccc2c1O[C@@H]1C[C@H](O)[C@@H](/C=C/[C@H](O)C3CCCCC3)[C@@H]1O2 (relative stereo) [Ibb-b] | 25 | 
CCC#CCC[C@@H](O)/C=C/[C@H]1[C@@H]2Oc3cccc(OCC(=O)OC)c3O[C@@H]2C[C@@H]1O (relative stereo) [Ibc-a] | 29 | 
CCC#CCC[C@@H](O)/C=C/[C@H]1[C@@H]2Oc3cccc(OCC(=O)O)c3O[C@@H]2C[C@@H]1O (relative stereo) [Ibc-b] | 14 | 
CCCCC(C)(C)[C@@H](O)/C=C/[C@H]1[C@@H]2Oc3cccc(OCC(=O)OC)c3O[C@@H]2C[C@@H]1O (relative stereo) [Ibg-a] | 15 | 
COC(=O)COc1cccc2c1O[C@@H]1C[C@H](O)[C@@H](/C=C/[C@H](O)C3CCCC3)[C@@H]1O2 (relative stereo) [Ibi-a] | 41 | 
CCCCC[C@H](O)/C=C/[C@H]1[C@@H]2Oc3cccc(OCC(=O)OC)c3O[C@@H]2C[C@@H]1O (relative stereo) [Ida-a, methyl [(1R*,2S*,3aR*,9aS*)-2-hydroxy-1-[(3S*,1E)-3-hydroxy-1-octenyl]-2,3,3a,9a-tetrahydro-1H-cyclopenta[b][1,4]benzodioxin-5-yl]oxyacetate] | 37 | 
CCCCC[C@H](O)/C=C/[C@H]1[C@@H]2Oc3cccc(OCC(=O)O)c3O[C@@H]2C[C@@H]1O (relative stereo) [Ida-b, [(1R*,2S*,3aR*,9aS*)-2-hydroxy-1-[(3S*,1E)-3-hydroxy-1-octenyl]-2,3,3a,9a-tetrahydro-1H-cyclopenta[b][1,4]benzodioxin-5-yl]oxyacetic acid] |  | inhibition in vivo at 0.1 mg/kg [2]: 19%
O=C(O)COc1cccc2c1O[C@@H]1C[C@H](O)[C@@H](/C=C/[C@@H](O)C3CCCCC3)[C@@H]1O2 (relative stereo) [Idb-b] | 25 | 
CCCCC[C@@H](O)CC[C@H]1[C@@H]2Oc3cccc(OCC(=O)OC)c3O[C@@H]2C[C@@H]1O (relative stereo) [Ifa-a, methyl[(1R*,2S*,3aR*,9aS*)-2-hydroxy-1-[(R*)-3-hydroxyoctyl]-2,3,3a,9a-tertahydro-1H-cyclopenta[b][1,4]benzodioxin-5-oxyacetate] | 27 | 
COC(=O)COc1cccc2c1O[C@@H]1C[C@H](O)[C@@H](CC[C@H](O)C3CCCCC3)[C@@H]1O2 (relative stereo) [Ifb-a] | 78 | 
O=C(O)COc1cccc2c1O[C@@H]1C[C@H](O)[C@@H](CC[C@H](O)C3CCCCC3)[C@@H]1O2 (relative stereo) [Ifb-b] | 75 | 
COC(=O)COc1cccc2c1O[C@@H]1C[C@H](O)[C@@H](CC[C@H](O)C3CCCC3)[C@@H]1O2 (relative stereo) [Ifi-a] | 52 | 
COC(=O)COc1cccc2c1O[C@@H]1C[C@H](O)[C@@H](CC[C@H](O)CC3CCCCC3)[C@@H]1O2 (relative stereo) [Ifj-a] | 25 | 

SMILES | inhibition in vivo at 0.03 mg/kg [1] [%] | other results
CCCCC[C@H](O)/C=C/[C@@H]1[C@H]2CC(SCCCC(=O)OC)=N[C@H]2C[C@H]1O [Hoe892, reference compound] |  | Percent Suppression (P.S.) (reference compound, 300 μg/Kg, strain not stated): 28%
CCCCC(C)CC(O)C=CC1C(O)CC2Oc3c(OCC(=O)OC)cccc3OC21 (centres unmarked) [Ibd-a] |  | Percent Suppression (P.S.) [1]: 91%
CCCCC(C)CC(O)C=CC1C(O)CC2Oc3c(OCC(=O)O)cccc3OC21 (centres unmarked) [Ibd-b] |  | Percent Suppression (P.S.) [1]: 74%
CCCCC(C)CC(O)C=CC1C(O)CC2Oc3c(OCC(=O)OC)cccc3OC21 (centres unmarked) [Ibe-a] |  | Percent Suppression (P.S.) [1]: 96%; inhibition in vivo at 0.03 mg/kg (CRJ-SD rats, oral, 30 μg/kg, 30 min before HCl-ethanol): 99%
CCCCC(C)CC(O)C=CC1C(O)CC2Oc3c(OCC(=O)O)cccc3OC21 (centres unmarked) [Ibe-b] | 80 | 
COC(=O)COc1cccc2c1OC1CC(O)C(C=CC(O)CC(C)CCC=C(C)C)C1O2 (centres unmarked) [Ibk-a] | 81 | 
CC(C)=CCCC(C)CC(O)C=CC1C(O)CC2Oc3c(OCC(=O)O)cccc3OC21 (centres unmarked) [Ibk-b] | 70 | 
COC(=O)COc1cccc2c1OC1CC(O)C(C=CC(O)CC(C)CCC=C(C)C)C1O2 (centres unmarked) [Ibl-a] |  | Percent Suppression (P.S.) [1]: 64%
CC(C)=CCCC(C)CC(O)C=CC1C(O)CC2Oc3c(OCC(=O)O)cccc3OC21 (centres unmarked) [Ibl-b] |  | Percent Suppression (P.S.) [1]: 83%
COC(=O)COc1cccc2c1OC1CC(O)C(C=CC(O)CC(C)Oc3ccccc3)C1O2 (centres unmarked) [Ibm-a] | 58 | 
COC(=O)COc1cccc2c1OC1CC(O)C(C=CC(O)CC(C)COc3ccccc3)C1O2 (centres unmarked) [Ibo-a] | 63 | 
CCCCC(C)CC(O)C=CC1C(O)CC2Oc3c(OCC(=O)OC)cccc3OC21 (centres unmarked) [Idd-a] |  | Percent Suppression (P.S.) [1]: 32%
CCCCC(C)CC(O)C=CC1C(O)CC2Oc3c(OCC(=O)OC)cccc3OC21 (centres unmarked) [Ide-a] |  | Percent Suppression (P.S.) [1]: 37%
CCCCC(C)CC(O)CCC1C(O)CC2Oc3c(OCC(=O)OC)cccc3OC21 (centres unmarked) [Ifd-a] |  | Percent Suppression (P.S.) [1]: 66%
CCCCC(C)CC(O)CCC1C(O)CC2Oc3c(OCC(=O)OC)cccc3OC21 (centres unmarked) [Ife-a] |  | Percent Suppression (P.S.) [1]: 91%
